Experimental data: the supplement of paper PMC10307832

Columns and labels:
Test in all cases: relative viability (nuclei count vs DMSO), 5 days (fraction); higher = more cells survive
Kobe2602 + Navitoclax = compound: C1=CC(=CC=C1NC(=S)NNC2=C(C=C(C=C2[N+](=O)[O-])C(F)(F)F)[N+](=O)[O-])F [Kobe2602] + CC1(C)CCC(c2ccc(Cl)cc2)=C(CN2CCN(c3ccc(C(=O)NS(=O)(=O)c4ccc(N[C@H](CCN5CCOCC5)CSc5ccccc5)c(S(=O)(=O)C(F)(F)F)c4)cc3)CC2)C1 [Navitoclax] (partner 0.5 µM)
Summary of the method: (§1)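 Each reported value is a median over duplicate plates. It expresses relative viability: treated-well nuclei count divided by vehicle-well nuclei count. Lung cancer cell lines in 1536-well plates were dosed by pin tool a day after seeding, alone with one drug or with a fixed anchor-drug dose plus five library-drug doses (not always all listed) in √10 steps, and nuclei were counted after 5 days.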

Kobe2602 + AZD7762 = compound: C1=CC(=CC=C1NC(=S)NNC2=C(C=C(C=C2[N+](=O)[O-])C(F)(F)F)[N+](=O)[O-])F [Kobe2602] + NC(=O)Nc1cc(-c2cccc(F)c2)sc1C(=O)N[C@H]1CCCNC1 [AZD7762] (partner 0.2 µM)
Summary of the method: as §1

[1] = compound: COc1cc2nccc(Oc3ccc(NC(=O)C4(C(=O)Nc5ccc(F)cc5)CC4)cc3)c2cc1OC [Cabozantinib] + CC(=O)c1c(C)c2cnc(Nc3ccc(N4CCNCC4)cn3)nc2n(C2CCCC2)c1=O [Palbociclib] (partner 0.5 µM)
Summary of the method: as §1

Zosuquidar + Palbociclib = compound: O[C@@H](COc1cccc2ncccc12)CN1CCN([C@@H]2c3ccccc3[C@@H]3[C@H](c4ccccc42)C3(F)F)CC1 [Zosuquidar] + CC(=O)c1c(C)c2cnc(Nc3ccc(N4CCNCC4)cn3)nc2n(C2CCCC2)c1=O [Palbociclib] (partner 0.5 µM)
Summary of the method: as §1

Row | Cell Line | relative viability (Kobe2602 + Navitoclax; first compound 0.2 µM) | relative viability (Kobe2602 + Navitoclax; first compound 0.6325 µM) | relative viability (Kobe2602 + Navitoclax; first compound 2 µM) | relative viability (Kobe2602 + Navitoclax; first compound 6.325 µM) | relative viability (Kobe2602 + Navitoclax; first compound 20 µM) | relative viability (Kobe2602 + AZD7762; first compound 0.2 µM) | relative viability (Kobe2602 + AZD7762; first compound 0.6325 µM) | relative viability (Kobe2602 + AZD7762; first compound 2 µM) | relative viability (Kobe2602 + AZD7762; first compound 6.325 µM) | relative viability (Kobe2602 + AZD7762; first compound 20 µM) | relative viability ([1]; first compound 0.02 µM) | relative viability ([1]; first compound 0.06325 µM) | relative viability ([1]; first compound 0.2 µM) | relative viability ([1]; first compound 0.6325 µM) | relative viability ([1]; first compound 2 µM) | relative viability (Zosuquidar + Palbociclib; first compound 0.01 µM) | relative viability (Zosuquidar + Palbociclib; first compound 0.03162 µM) | relative viability (Zosuquidar + Palbociclib; first compound 0.1 µM) | relative viability (Zosuquidar + Palbociclib; first compound 0.3162 µM) | relative viability (Zosuquidar + Palbociclib; first compound 1 µM)
1 | NCI-H2126 | 0.883 | 0.888 | 0.799 | 0.776 | 0.788 | 1.07 | 1.01 | 1.09 | 1.08 | 0.988 | 0.315 | 0.37 | 0.336 | 0.364 | 0.332 | 0.349 | 0.339 | 0.351 | 0.341 | 0.351
2 | PC-14 | 0.978 | 1.04 | 0.982 | 1.03 | 0.971 | 0.39 | 0.445 | 0.348 | 0.351 | 0.308 | 0.511 | 0.703 |  | 0.516 | 0.417 | 0.506 | 0.475 | 0.635 | 0.509 | 0.52
3 | EMC-BAC-2 | 1.16 | 1.17 | 1.11 | 1.13 | 1.16 | 1.14 | 1.16 | 1.06 | 1.21 | 1.16 | 0.531 | 0.551 | 0.552 | 0.533 | 0.543 | 0.508 | 0.451 | 0.544 | 0.577 | 0.521
4 | NCI-H1437 | 1.04 | 1.07 | 1.11 | 1.11 | 0.901 | 1.17 | 1.14 | 1.11 | 1.05 | 1.02 | 0.312 | 0.339 | 0.296 | 0.344 | 0.302 | 0.3 | 0.333 | 0.348 | 0.272 | 0.32
5 | NCI-H2405 | 0.82 | 0.847 | 0.783 | 1.06 | 0.987 | 0.767 | 0.912 | 0.664 | 0.798 | 0.857 | 0.509 | 0.568 | 0.568 | 0.569 | 0.519 | 0.565 | 0.528 | 0.555 | 0.539 | 0.489
6 | NCI-H1666 | 1.02 | 0.982 |  | 0.77 | 0.924 | 0.804 | 0.804 | 0.903 | 0.812 | 0.891 | 0.642 | 0.658 | 0.664 | 0.662 | 0.642 | 0.56 | 0.715 | 0.668 | 0.757 | 0.648
7 | NCI-H1993 | 0.678 | 0.707 | 0.787 | 0.687 | 0.729 | 0.812 | 0.847 | 0.611 | 0.698 | 0.688 | 0.661 | 0.537 | 0.461 | 0.571 | 0.437 | 0.653 | 0.603 |  | 0.617 | 0.615
8 | HCC-44 | 0.989 | 0.998 | 0.928 | 0.963 | 1.02 | 0.951 | 0.952 | 1.04 | 0.982 | 0.892 | 1.04 | 1.05 | 0.998 | 0.977 | 1.03 | 0.974 | 1.04 | 0.944 | 1.02 | 0.956
9 | LU99A | 0.817 | 0.87 | 0.811 | 0.732 | 0.781 | 0.356 | 0.381 | 0.31 | 0.279 | 0.356 | 0.381 | 0.419 | 0.447 | 0.39 | 0.362 | 0.342 | 0.37 | 0.473 | 0.459 | 0.353
10 | NCI-H727 | 0.392 | 0.431 | 0.356 | 0.389 | 0.456 | 0.57 | 0.519 | 0.532 |  | 0.644 | 0.648 | 0.689 | 0.577 | 0.62 | 0.616 | 0.596 | 0.607 |  | 0.599 | 0.668
11 | NCI-H1975 | 1.08 | 0.955 | 0.968 | 1.1 | 0.928 | 0.724 | 0.791 | 0.658 | 0.645 | 0.662 | 0.533 | 0.777 | 0.647 | 0.418 | 0.557 | 0.587 | 0.475 | 0.582 | 0.714 | 0.531
12 | NCI-H1355 | 0.887 | 0.94 | 0.945 | 0.901 | 0.902 | 0.744 | 0.7 | 0.744 | 0.676 | 0.815 | 0.423 | 0.448 | 0.389 | 0.371 | 0.379 | 0.417 | 0.397 | 0.404 | 0.308 | 0.412
13 | NCI-H1755 | 0.999 | 0.995 | 0.969 | 0.96 | 0.926 | 0.416 | 0.446 | 0.642 | 0.407 | 0.544 | 0.471 | 0.454 | 0.461 | 0.43 | 0.446 | 0.47 | 0.461 | 0.464 | 0.441 | 0.454
14 | NCI-H1395 | 1.07 | 1.09 | 1.12 | 1.11 | 1.33 | 0.35 | 0.428 | 0.406 | 0.422 | 0.406 | 0.631 | 0.79 | 0.626 | 0.642 | 0.54 | 0.596 | 0.664 |  | 0.64 | 0.549
15 | HCC-78 | 0.761 | 0.893 |  | 0.78 | 0.91 | 0.7 | 0.675 | 0.748 | 0.588 | 0.774 |  | 0.444 | 0.413 | 0.467 | 0.435 | 0.477 | 0.545 |  | 0.492 | 0.462
16 | NCI-H322M | 1.28 | 1.31 | 1.25 | 1.26 | 0.631 | 0.604 | 0.52 | 0.474 | 0.72 | 0.587 | 0.533 | 0.565 | 0.446 | 0.498 | 0.454 | 0.458 | 0.485 | 0.475 | 0.463 | 0.468
